The numbers were not newly measured in patent publication US7781400B2, “Pharmaceutical compositions comprising dextran with a molecular weight of 1.0-100 KDA and processes for their preparation” (BOWS Pharmaceuticals AG, priority 2006, dated 2010), which cites them from elsewhere.

The conditions of the data set: in vivo.

With polyglycolide, the “adverse tissue response rates” value was “up to 47%”.
